In US20050124056A1, “Novel oxidase” (priority 2002, published 2005):

Columns and labels:
[1] = test system: TNF-α mRNA in NOX1-b expressing cells; conditions: pretreated for 3 hours with 1 μM; RT-PCR, EtBr staining
Method: On each of the cDNA samples prepared in Example 6 and using a DNA polymerase (r Taq DNA polymerase; mfd. by Toyobo), RT-PCR reaction of 94° C. for 1 minute, 45 cycles of consisting of 94° C. for 10 seconds and 55° C. for 20 seconds and 72° C. for 30 seconds, was carried out.

[2] = test system: COX-2 mRNA in NOX1-b expressing cells; conditions: final concentration of 1 μM, RT-PCR 3 hours thereafter; EtBr staining
Method: Using the mRNA extraction method shown in Example 1, respective cDNA samples were prepared from the vacant vector expressing cells and NOX1-b expressing cells. By synthesizing probe primers coding for the COX-2-specific sequences represented by SEQ ID NO:9 and SEQ ID NO:10, an RT-PCT reaction of 94° C. for 1 minute and 45 cycles consisting of 94° C. for 10 seconds, 55° C. for 20 seconds and 72° C. for 30 seconds, was carried out on each of the vacant vector expressing cell- and NOX1-b expressing cells-derived samples using a DNA polymerase (r Taq DNA polymerase; mfd. by Toyobo).

NOX1-b = NOX1-b (Homo sapiens, UniProt Q9Y5S8); conditions: 1 μM added 30 minutes before the addition of cytochrome C; NOX1-b expressing NIH3T3 cells
Sequence of NOX1-b (Q9Y5S8 1-515 isoform Q9Y5S8-3): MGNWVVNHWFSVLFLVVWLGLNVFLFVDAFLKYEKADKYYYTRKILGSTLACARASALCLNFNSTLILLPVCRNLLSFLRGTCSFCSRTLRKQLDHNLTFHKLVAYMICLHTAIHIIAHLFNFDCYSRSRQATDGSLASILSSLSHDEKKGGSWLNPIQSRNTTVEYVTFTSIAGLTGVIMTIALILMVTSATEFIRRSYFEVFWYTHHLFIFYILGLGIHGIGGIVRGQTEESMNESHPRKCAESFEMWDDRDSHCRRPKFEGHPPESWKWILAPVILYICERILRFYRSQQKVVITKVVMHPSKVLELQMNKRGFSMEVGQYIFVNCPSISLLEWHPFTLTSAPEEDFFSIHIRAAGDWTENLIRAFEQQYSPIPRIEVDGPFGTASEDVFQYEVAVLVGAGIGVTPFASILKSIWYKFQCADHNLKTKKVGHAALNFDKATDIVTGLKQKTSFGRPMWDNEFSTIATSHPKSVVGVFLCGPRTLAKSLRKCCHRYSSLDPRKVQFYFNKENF
Sequence of NOX1-b (Q61462 whole entry partner): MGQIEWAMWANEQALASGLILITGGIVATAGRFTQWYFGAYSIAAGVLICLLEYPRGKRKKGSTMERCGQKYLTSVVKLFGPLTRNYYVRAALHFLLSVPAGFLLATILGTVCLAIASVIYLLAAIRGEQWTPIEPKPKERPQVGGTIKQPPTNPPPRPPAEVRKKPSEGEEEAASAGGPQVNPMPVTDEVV
Method: Using the NOX1-b expressing cells shown in Example 3, the ROS productivity was measured by a cytochrome C reduction method. In order to measure ROS by the cytochrome C reduction method, vacant vector expressing cells and NOX1-b expressing cells were respectively dispensed in 0.5×10^6 cells/100 μl/well portions into a 96 well multi-well plate for cell culture (to be referred to as multi-well plate). About 12 hours thereafter, 4.62 mg/ml of cytochrome C was added and mixed in 100 μl/well portions under respective conditions, and then the multi-well plate was set on a plate reader to periodically measurement of absorbance at 550 nm.

How did the “induction of TNF-α expression in NOX1-b expressing cells” value [1] turn out when c1ccc2c(c1)[I+]c1ccccc1-2 [DPI, diphenylene iodonium chloride] was run?
The value was “inhibited”.

What about the “induction of COX-2 expression by NOX1-b expression” value [2] of the same molecule?
The value was “inhibited”.

And the “ROS producing activity (absorbance at 550 nm, integrated values after 1 hour)” value (NOX1-b)?
Its value is “considerably inhibited”.
